The structures appear in SMILES notation. Values after ≈ are worked out from the molar mass of the structure shown.

A short description of experiment [1]: Inhibition of HIV1 recombinant Rev protein expressed in Escherichia coli binding to HIV1 Rre RNA by liquid scintillation assay. Further details: species or system Human immunodeficiency virus 1.
The nature of experiment [2]: Inhibition of R17 coat protein binding to [33P]labeled R17 operator RNA.
The nature of experiment [3]: Ratio of IC50 for R17 activity to IC50 for HIV1 Rev activity.
A further experiment has as its system Candida albicans. The experiment is described as follows: Antifungal activity against Candida albicans. It is filed as functional.
Another experiment deals with Penicillium chrysogenum. The experiment is described as follows: Antifungal activity against Penicillium chrysogenum. It counts as functional.
The test system of another experiment is M109. Description: Antitumor activity against mouse M109 cells. It is filed as functional.

What is called IC50 is the point on the concentration scale where inhibition reaches its midpoint. One may read the MIC as the smallest concentration in the dilution series that meets the test's criterion for growth inhibition. A high value points to weaker potency. As for `CC[C@@H]1Oc2ccn(O)c(=O)c2[C@H]2[C@H](C)C[C@H](C)C[C@]12C` [FUSARICIDE], the IC50 turned out to be 40 µg/mL in experiment [1] and 75 µg/mL (≈ 257 µM) in experiment [2]. Besides, the Ratio IC50 in experiment [3] is less than 2. Also, the MIC against Candida albicans was determined as 16 µg/mL (≈ 54.9 µM); with Penicillium chrysogenum, 8 µg/mL (≈ 27.5 µM). For the same compound, in the experiment on M109, the Activity was found to be 1 µg/mL.

(Values after ChEMBL document CHEMBL1158311, “Fusaricide, a new cytotoxic N-hydroxypyridone from Fusarium sp” (J Nat Prod, 1996).)
